# Laboratory results from patent publication US9260760B2, “Method for determining complete response to anticancer therapy” (Board of Regents, The University of Texas System, priority 2012, dated 2016).
# Values joined by “and” are separate entries in the source; they are usually repeats but may differ in a detail not shown here. Equal values may be shown once.
# Key:
# [1] = Study 3: treatment-related toxicity of XCEL (CTCAE version 3.0); settings: in vivo
# Description: The institutional review board approved this study. […] All patients had clinical examinations, laboratory and CT scan every 2-3 months.
# The principal investigator and two board-certified radiologists reviewed all the CT scan images. CR was defined according to the RECIST criteria as complete disappearance of measurable or none-measurable disease. Effective CR (eCR) was coined to describe normalization of an anatomical structure (e.g. nodes) that cannot regress completely. Confirmed CR included those patients who had CR by meeting the RECIST criteria or had achieved eCR or pathological CR. Near CR (nCR) were defined as almost complete disappearance (95-99%) of measurable disease on CT scan. Relapse free survival (RFS) was defined as the time from first radiologic CR to first recurrence, progression, or death. […] OS was defined as the time from first radiologic CR to death from any cause. Treatment related toxicity was graded in accordance with the National Cancer Institute Common Toxicity Criteria for Adverse Events, version 3.0.
# [2] = tested on: metastatic colorectal cancer; assay: Study 1: retrospective cohort, XCEL with or without radiation; tumor response (RECIST), PFS and OS; assay type: in vivo, human
# Description: The institutional review board of The University of Texas M. D. Anderson Cancer Center approved this retrospective expanded cohort study. Between October 2000 and December 2003, seventy-four patients with metastatic colorectal cancer received capecitabine with concurrent celecoxib (n=66), or rofecoxib (n=2), ibuprofen (n=2), sulindac (n=2) and high dose aspirin (n=2).
# The radiation was delivered to the target area using 18 MV photons with 3-D conformal planning technique. The dose of radiation was either 35-40 Gy (n=18) or >45 Gy (n=15) with dose radiation missing in one patient. […] Celecoxib was continued with capecitabine to prevent HFS and to improve survival.
# All patients were subjected to routine clinical examinations, laboratory analyses, and computed tomography. Patients were seen weekly during radiotherapy if treated on site or every 6-9 weeks with physical examinations, laboratory tests, and computed tomography. Treatment-related toxicity was graded using the National Institutes of Health's Common Toxicities Criteria (CTC) version 2.0. Tumor responses were evaluated using RECIST criteria. Complete response was defined as complete radiographic disappearance of measurable or evaluable disease or stable, minimal radiographic findings; partial response was defined as reduction of the longest dimension of measurable disease by at least 50%; stable disease was defined as reduction of the longest dimension by less than 25%; These responses or stable must be confirmed at least by 3 months interval evaluation; Progressive disease was defined as growth of the tumor by more than 25% in the longest dimension or development of new lesions. Overall response rate was defined as the sum of the complete and partial response rates and the tumor control rate was defined as the sum of overall response rates with stable disease rates. The date of death was ascertained through the cancer registry or through a search of patients' social security numbers in the Social Security Death Index (ssdi.genealogy.rootsweb.com). The cutoff point for collection of data was April 2004.
# Continuous variables were summarized using the mean (±standard deviation) or the median (range). […] Progression-free and overall survival distributions were summarized using the method of Kaplan and Meier. Differences in progression-free and overall survival by subgroup were analyzed using the log-rank test. Multivariate models of predictors of progression-free survival and overall survival were evaluated using the proportional hazards (Cox) regression model. P<0.05 was considered statistically significant.
# [3] = First-line responders, no radiation (n = 5)
# [4] = First-line responders, radiation (n = 4)
# [5] = First-line, no radiation (n = 14)
# [6] = Second-line, no radiation (n = 13)
# [7] = Second-line, radiation (n = 20)
# [8] = second-line XCEL, progressed on 5FU and irinotecan (n=28)
# [9] = second-line with 9 first-line responding patients included
# [10] = second-line, irinotecan refractory
smiles,measurement,setting,value
Cc1ccc(-c2cc(C(F)(F)F)nn2-c2ccc(S(N)(=O)=O)cc2)cc1 [XCEL],Median mean corpuscular volume (MCV) increase from baseline after XCEL,[1],11.5
same,cardiovascular toxicities,[1],No cardiovascular toxicities were encountered
same,"Overall Survival, Median (95% CI)",[2]; All,22.0 (17.8-31.5) months
same,"Progression-free survival, Median (95% CI)",[2]; All,8.3 (7.0-11.0) months
same,"Overall Survival, Median (95% CI)",[2]; CEA >3.0 ng/ml,20.0 (16.2-26.9) months
same,"Progression-free survival, Median (95% CI)",[2]; CEA >3.0 ng/ml,7.1 (5.7-9.4) months
same,"Overall Survival, Median (95% CI)",[2]; CEA ≦3.0 ng/ml,31.5 (18.0-NR) months
same,"Progression-free survival, Median (95% CI)",[2]; CEA ≦3.0 ng/ml,16.8 (9.4-NR) months
same,Complete response,[2]; [3],4 (80) No. of patients (%)
same,Overall response,[2]; [3],4 (80) No. of patients (%)
same,Partial response,[2]; [3],0 (0) No. of patients (%)
same,Stable disease,[2]; [3],0 (0) No. of patients (%)
same,Tumor control,[2]; [3],4 (80) No. of patients (%)
same,Complete response,[2]; [4],3 (75) No. of patients (%)
same,Overall response,[2]; [4],4 (100) No. of patients (%)
same,Partial response,[2]; [4],1 (0) No. of patients (%)
same,Stable disease,[2]; [4],0 (0) No. of patients (%)
same,Tumor control,[2]; [4],4 (100) No. of patients (%)
same,Complete response,[2]; [5],1 (7) No. of patients (%)
same,Overall response,[2]; [5],4 (29) No. of patients (%)
same,Partial response,[2]; [5],3 (21) No. of patients (%)
same,Stable disease,[2]; [5],8 (57) No. of patients (%)
same,Tumor control,[2]; [5],12 (86) No. of patients (%)
same,Complete response,"[2]; First-line, radiation (n = 10)",3 (30) No. of patients (%)
same,Overall response,"[2]; First-line, radiation (n = 10)",4 (40) No. of patients (%)
same,Partial response,"[2]; First-line, radiation (n = 10)",3 (20) No. of patients (%)
same,Stable disease,"[2]; First-line, radiation (n = 10)",4 (40) No. of patients (%)
same,Tumor control,"[2]; First-line, radiation (n = 10)",8 (80) No. of patients (%)
same,"Progression-free survival, Median (95% CI)",[2]; LDH >618,6.4 (4.3-7.2) months
same,"Progression-free survival, Median (95% CI)",[2]; LDH ≦618,14.5 (9.2-26.3) months
same,"Overall Survival, Median (95% CI)",[2]; LDH ≦618 (normal level of LDH),31 months and 31.5 (23.6-NR) months
same,"Overall Survival, Median (95% CI)",[2]; No Radiation (RT),20.0 (16.6-22.8) months
same,"Progression-free survival, Median (95% CI)",[2]; No Radiation (RT),7.2 (4.8-9.4) months
same,Complete response,[2]; No radiation (n = 32),4 (13) No. of patients (%)
same,Overall response,[2]; No radiation (n = 32),10 (31) No. of patients (%)
same,Partial response,[2]; No radiation (n = 32),6 (19) No. of patients (%)
same,Stable disease (>4 months),[2]; No radiation (n = 32),13 (41) No. of patients (%)
same,Tumor control,[2]; No radiation (n = 32),23 (72) No. of patients (%)
same,"Overall Survival, Median (95% CI)",[2]; No surgery,19.3 (16.2-26.9) months
same,"Progression-free survival, Median (95% CI)",[2]; No surgery,7.8 (6.4-9.4) months
same,"Progression-free survival, Median (95% CI)",[2]; RT <45 Gy,8.0 (6.4-14.6) months
same,"Overall Survival, Median (95% CI)",[2]; RT ≧45 Gy,21.8 (17.6-NR) months
same,"Progression-free survival, Median (95% CI)",[2]; RT ≧45 Gy,21.2 (7.1-21.2) months
same,Complete response,[2]; Radiation (n = 34),9 (26) No. of patients (%)
same,Overall response,[2]; Radiation (n = 34),15 (44) No. of patients (%)
same,Partial response,[2]; Radiation (n = 34),6 (18) No. of patients (%)
same,Stable disease (>4 months),[2]; Radiation (n = 34),12 (35) No. of patients (%)
same,Tumor control,[2]; Radiation (n = 34),27 (79) No. of patients (%)
same,Complete response,[2]; [6],0 No. of patients (%)
same,Overall response,[2]; [6],2 (15) No. of patients (%)
same,Partial response,[2]; [6],2 (15) No. of patients (%)
same,Stable disease,[2]; [6],5 (38) No. of patients (%)
same,Tumor control,[2]; [6],7 (54) No. of patients (%)
same,Complete response,[2]; [7],2 (10) No. of patients (%)
same,Overall response,[2]; [7],7 (35) No. of patients (%)
same,Partial response,[2]; [7],5 (25) No. of patients (%)
same,Stable disease,[2]; [7],8 (40) No. of patients (%)
same,Tumor control,[2]; [7],15 (75) No. of patients (%)
same,"Progression-free survival, Median (95% CI)",[2]; Surgery,16.8 (8.3-31.4) months
same,patients achieving complete response,[2]; after first-line response to irinotecan-based therapy,7 of 9
same,second line overall response rate,[2]; all 9 first-line irinotecan responders included,40.5%
same,complete response (CR),[2]; all 66 patients,20%
same,overall response rate,[2]; all 66 patients,38%
same,partial response (PR),[2]; all 66 patients,18%
same,tumor control rate,[2]; all 66 patients,76%
same,median PFS,[2]; first-line XCEL,8.3 months
same,median overall survival,[2]; first-line XCEL,26.9 months
same,Stable disease (%),[2]; first-line XCEL (n=24),50%
same,complete response (CR),[2]; first-line XCEL (n=24),17%
same,overall response rate,[2]; first-line XCEL (n=24),34% and 33%
same,tumor control rate,[2]; first-line XCEL (n=24),84%
same,complete responses,"[2]; nineteen of 66 patients, XCEL alone or with radiation",29%
same,complete response by site,[2]; nodal metastasis,51%
same,complete response by site,[2]; peritoneum,40%
same,Stable disease (%),[2]; second-line XCEL (n=28),50%
same,complete response (CR),[2]; [8],7%
same,overall response rate,[2]; [8],25%
same,tumor control rate,[2]; [8],68%
same,median overall survival,[2]; [9],19.3 months
same,median progression free survival,[2]; [9],8.3 months
same,median PFS,[2]; [10],6.7 months
same,median overall survival,[2]; [10],17.8 months and 17.6 months
